{
  "source": "paper PMC5218480",
  "about": "(PLoS ONE, 2017)",
  "system": "MV-4-11 cells",
  "test": "Gene expression microarray analysis (Affymetrix PrimeView) and GSEA",
  "type": "cell-based, human",
  "parameters": "RFU PODN (11730768_x_at) / Fold change /veh PODN (11730768_x_at) / RFU LINC00158 (11744669_a_at) / Fold change /veh LINC00158 (11744669_a_at) / RFU DUSP10 (11751237_a_at) / Fold change /veh DUSP10 (11751237_a_at) / RFU ID3 (11757404_x_at) / Fold change /veh ID3 (11757404_x_at) / RFU PLEKHG5 (11737974_s_at) / Fold change /veh PLEKHG5 (11737974_s_at) / RFU LRRC4B (11730491_at) / Fold change /veh LRRC4B (11730491_at) / RFU GIMAP4 (11747438_a_at) / Fold change /veh GIMAP4 (11747438_a_at) / RFU KRT8 (11758183_x_at) / Fold change /veh KRT8 (11758183_x_at) / RFU CNN1 (11734310_a_at) / Fold change /veh CNN1 (11734310_a_at) / RFU VPS37D (11726825_at) / Fold change /veh VPS37D (11726825_at) / RFU C10orf10 (11716522_x_at) / Fold change /veh C10orf10 (11716522_x_at) / RFU KIR2DL2 /// KIR2DL4 /// KIR2DL5A /// KIR2DL5B /// KIR2DS1 /// KIR2DS2 /// KIR2DS3 /// KIR2DS4 /// KIR3DL3 /// KIR3DL3 /// KIR3DS1 (11738374_at) / Fold change /veh KIR2DL2 /// KIR2DL4 /// KIR2DL5A /// KIR2DL5B /// KIR2DS1 /// KIR2DS2 /// KIR2DS3 /// KIR2DS4 /// KIR3DL3 /// KIR3DL3 /// KIR3DS1 (11738374_at) / RFU C1QL1 (11718748_at) / Fold change /veh C1QL1 (11718748_at) / RFU TMPRSS4 (11747572_a_at) / Fold change /veh TMPRSS4 (11747572_a_at) / RFU HAMP (11756126_x_at) / Fold change /veh HAMP (11756126_x_at) / RFU RNFT2 (11725882_a_at) / Fold change /veh RNFT2 (11725882_a_at) / RFU NR4A2 (11747474_a_at) / Fold change /veh NR4A2 (11747474_a_at) / RFU ABCC12 (11746883_a_at) / Fold change /veh ABCC12 (11746883_a_at) / RFU TMEM136 (11760407_x_at) / Fold change /veh TMEM136 (11760407_x_at) / RFU CLDN22 /// WWC2 (11732394_at) / Fold change /veh CLDN22 /// WWC2 (11732394_at) / RFU HLA-DPB1 (11760878_x_at) / Fold change /veh HLA-DPB1 (11760878_x_at) / RFU SPINT1 (11716480_a_at) / Fold change /veh SPINT1 (11716480_a_at) / RFU GAP43 (11754022_s_at) / Fold change /veh GAP43 (11754022_s_at) / RFU A4GNT (11735810_at) / Fold change /veh A4GNT (11735810_at) / RFU PRB3 (11715151_x_at) / Fold change /veh PRB3 (11715151_x_at) / RFU TUBB4B (11761932_at) / Fold change /veh TUBB4B (11761932_at) / RFU CAPN14 (11732068_a_at) / Fold change /veh CAPN14 (11732068_a_at) / RFU TMCC2 (11721928_a_at) / Fold change /veh TMCC2 (11721928_a_at) / RFU IRGQ (11745062_a_at) / Fold change /veh IRGQ (11745062_a_at) / RFU FAM174B (11720279_a_at) / Fold change /veh FAM174B (11720279_a_at) / RFU TMPRSS4 (11748680_a_at) / Fold change /veh TMPRSS4 (11748680_a_at) / RFU FAM212B (11763350_a_at) / Fold change /veh FAM212B (11763350_a_at) / RFU PLEKHG5 (11743358_a_at) / Fold change /veh PLEKHG5 (11743358_a_at) / RFU ZSCAN30 (11745921_a_at) / Fold change /veh ZSCAN30 (11745921_a_at) / RFU CMKLR1 (11741424_a_at) / Fold change /veh CMKLR1 (11741424_a_at) / RFU LOC101060620 /// MAPK8IP1 (11723275_at) / Fold change /veh LOC101060620 /// MAPK8IP1 (11723275_at) / RFU SPTSSB (11747773_x_at) / Fold change /veh SPTSSB (11747773_x_at) / RFU PRSS12 (11739890_at) / Fold change /veh PRSS12 (11739890_at) / RFU BIN1 (11741810_x_at) / Fold change /veh BIN1 (11741810_x_at) / RFU WNT11 (11732464_a_at) / Fold change /veh WNT11 (11732464_a_at) / RFU C10orf10 (11716521_a_at) / Fold change /veh C10orf10 (11716521_a_at) / RFU C5orf56 (11738089_at) / Fold change /veh C5orf56 (11738089_at) / RFU CYB561 (11721691_x_at) / Fold change /veh CYB561 (11721691_x_at) / RFU ANKRD19P (11752326_a_at) / Fold change /veh ANKRD19P (11752326_a_at) / RFU OR2T12 /// OR2T33 /// OR2T8 (11738714_s_at) / Fold change /veh OR2T12 /// OR2T33 /// OR2T8 (11738714_s_at) / RFU VCAN (11748164_a_at) / Fold change /veh VCAN (11748164_a_at) / RFU JSRP1 (11732532_at) / Fold change /veh JSRP1 (11732532_at) / RFU KRTAP10-11 (11738290_x_at) / Fold change /veh KRTAP10-11 (11738290_x_at) / RFU MYO3A (11730013_a_at) / Fold change /veh MYO3A (11730013_a_at) / RFU EBF3 (11725865_a_at) / Fold change /veh EBF3 (11725865_a_at) / RFU CAMK2N1 (11719241_x_at) / Fold change /veh CAMK2N1 (11719241_x_at) / RFU C5orf56 (11738088_a_at) / Fold change /veh C5orf56 (11738088_a_at) / RFU OLFML3 (11715873_a_at) / Fold change /veh OLFML3 (11715873_a_at) / RFU LOC100653217 /// NTM (11731650_a_at) / Fold change /veh LOC100653217 /// NTM (11731650_a_at) / RFU MAPK11 (11762145_a_at) / Fold change /veh MAPK11 (11762145_a_at) / RFU FIZ1 (11724087_x_at) / Fold change /veh FIZ1 (11724087_x_at) / RFU OASL (11726364_x_at) / Fold change /veh OASL (11726364_x_at) / RFU SOX15 (11748057_x_at) / Fold change /veh SOX15 (11748057_x_at) / RFU CD79A (11719716_a_at) / Fold change /veh CD79A (11719716_a_at) / RFU HIST1H1D (11736915_at) / Fold change /veh HIST1H1D (11736915_at) / RFU CASKIN2 (11723855_a_at) / Fold change /veh CASKIN2 (11723855_a_at) / RFU LOC730098 (11760151_x_at) / Fold change /veh LOC730098 (11760151_x_at) / RFU OR4N2 (11742367_at) / Fold change /veh OR4N2 (11742367_at) / RFU PRRT2 (11749266_a_at) / Fold change /veh PRRT2 (11749266_a_at) / RFU SNX32 (11753110_a_at) / Fold change /veh SNX32 (11753110_a_at) / RFU CDHR5 (11726645_a_at) / Fold change /veh CDHR5 (11726645_a_at) / RFU RCAN1 (11760418_a_at) / Fold change /veh RCAN1 (11760418_a_at) / RFU FAM167A (11723789_a_at) / Fold change /veh FAM167A (11723789_a_at) / RFU FAM26E (11764081_at) / Fold change /veh FAM26E (11764081_at) / RFU ISYNA1 (11749810_s_at) / Fold change /veh ISYNA1 (11749810_s_at) / RFU ACY1 (11761880_at) / Fold change /veh ACY1 (11761880_at) / RFU 11764098_at / Fold change /veh 11764098_at / RFU SAMD14 (11745864_x_at) / Fold change /veh SAMD14 (11745864_x_at) / RFU NPB (11741838_a_at) / Fold change /veh NPB (11741838_a_at) / RFU TMPRSS6 (11731388_a_at) / Fold change /veh TMPRSS6 (11731388_a_at) / RFU KRTAP10-2 (11738614_at) / Fold change /veh KRTAP10-2 (11738614_at) / RFU ARHGAP8 /// PRR5-ARHGAP8 (11727945_x_at) / Fold change /veh ARHGAP8 /// PRR5-ARHGAP8 (11727945_x_at) / RFU KRTAP5-7 /// NADSYN1 (11734609_at) / Fold change /veh KRTAP5-7 /// NADSYN1 (11734609_at) / RFU RASL12 (11751679_a_at) / Fold change /veh RASL12 (11751679_a_at) / RFU CDKN2B (11736163_a_at) / Fold change /veh CDKN2B (11736163_a_at) / RFU PRF1 (11729649_at) / Fold change /veh PRF1 (11729649_at) / RFU, ZNF638 /// ZNF638-IT1 / Fold change vs veh, ZNF638 /// ZNF638-IT1 / RFU, PANK3 / Fold change vs veh, PANK3 / RFU, SH3YL1 / Fold change vs veh, SH3YL1 / RFU, ZEB2 / Fold change vs veh, ZEB2 / RFU, NRIP1 / Fold change vs veh, NRIP1 / RFU, PTTG1IP / Fold change vs veh, PTTG1IP / RFU, CAPN2 / Fold change vs veh, CAPN2 / RFU, MED14 / Fold change vs veh, MED14 / RFU, SNORA58 / Fold change vs veh, SNORA58 / RFU, C1orf63 / Fold change vs veh, C1orf63 / RFU, LRRFIP1 / Fold change vs veh, LRRFIP1 / RFU, NDUFAF7 / Fold change vs veh, NDUFAF7 / RFU, SLC12A2 / Fold change vs veh, SLC12A2 / RFU, IBTK / Fold change vs veh, IBTK / RFU, ESF1 / Fold change vs veh, ESF1 / Fold change vs veh, TMEM50B / RFU, TAOK1 / Fold change vs veh, TAOK1 / RFU, ACBD3 / Fold change vs veh, ACBD3 / RFU, TMA16 / Fold change vs veh, TMA16 / RFU, RWDD3 / Fold change vs veh, RWDD3 / RFU, BCAT1 / Fold change vs veh, BCAT1 / RFU, EDEM3 / Fold change vs veh, EDEM3 / RFU, TMEM33 / Fold change vs veh, TMEM33 / RFU, WDR75 / Fold change vs veh, WDR75 / RFU, AHCTF1 / Fold change vs veh, AHCTF1 / RFU, TFRC / Fold change vs veh, TFRC / RFU, ZDHHC17 / Fold change vs veh, ZDHHC17 / RFU, NOM1 / Fold change vs veh, NOM1 / RFU, ARL8B / Fold change vs veh, ARL8B / RFU, ZBTB11 / Fold change vs veh, ZBTB11 / RFU, TAMM41 / Fold change vs veh, TAMM41 / RFU, KIAA1704 /// LOC100996395 / Fold change vs veh, KIAA1704 /// LOC100996395 / RFU, ING1 / Fold change vs veh, ING1 / RFU, TRMT61B / Fold change vs veh, TRMT61B / RFU, FUBP3 / Fold change vs veh, FUBP3 / RFU, TP53 / Fold change vs veh, TP53 / RFU, TNKS2 / Fold change vs veh, TNKS2 / RFU, ZFP14 / Fold change vs veh, ZFP14 / RFU, ACTR2 / Fold change vs veh, ACTR2 / RFU, PPP3R1 / Fold change vs veh, PPP3R1 / RFU, PIK3R1 / Fold change vs veh, PIK3R1 / RFU, HNRNPA1 / Fold change vs veh, HNRNPA1 / RFU, RNF170 / Fold change vs veh, RNF170 / RFU, ZNF28 / Fold change vs veh, ZNF28 / RFU, RNGTT / Fold change vs veh, RNGTT / RFU, OGT / Fold change vs veh, OGT / RFU, BRD1 / Fold change vs veh, BRD1 / RFU, MARS / Fold change vs veh, MARS / RFU, ZNF655 / Fold change vs veh, ZNF655 / RFU, FAHD1 / Fold change vs veh, FAHD1 / RFU, BDP1 / Fold change vs veh, BDP1 / RFU, LRRCC1 / Fold change vs veh, LRRCC1 / RFU, ARID1A / Fold change vs veh, ARID1A / RFU, ZNF146 / Fold change vs veh, ZNF146 / RFU, ZNF330 / Fold change vs veh, ZNF330 / RFU, GPN3 / Fold change vs veh, GPN3 / RFU, C9orf123 / Fold change vs veh, C9orf123 / RFU, N4BP2L2 / Fold change vs veh, N4BP2L2 / RFU, ARFIP1 / Fold change vs veh, ARFIP1 / RFU, FAM179B / Fold change vs veh, FAM179B / RFU, BCL10 / Fold change vs veh, BCL10 / RFU, UHRF1BP1L / Fold change vs veh, UHRF1BP1L / RFU, BET1 / Fold change vs veh, BET1 / RFU, CNOT2 / Fold change vs veh, CNOT2 / RFU, ZNF268 / Fold change vs veh, ZNF268 / Fold change vs veh, ZNF507 / RFU, DGCR2 / Fold change vs veh, DGCR2 / RFU, WDSUB1 / Fold change vs veh, WDSUB1 / Fold change vs veh, HSP90B1 /// MIR3652 / RFU, ADSS / Fold change vs veh, ADSS / RFU, GK / Fold change vs veh, GK / RFU, ZNF148 / Fold change vs veh, ZNF148 / RFU, TAF9 / Fold change vs veh, TAF9 / RFU, SLC1A5 / Fold change vs veh, SLC1A5 / RFU, SLMO2 / Fold change vs veh, SLMO2 / RFU, ABCC4 / Fold change vs veh, ABCC4 / RFU, LOC101060439 /// RAP1B / Fold change vs veh, LOC101060439 /// RAP1B / RFU, RFX7 / Fold change vs veh, RFX7 / RFU, GTPBP10 / Fold change vs veh, GTPBP10 / RFU, CNEP1R1 / Fold change vs veh, CNEP1R1 / RFU, BIVM-ERCC5 /// ERCC5 / Fold change vs veh, BIVM-ERCC5 /// ERCC5 / RFU, ILF3 / Fold change vs veh, ILF3 / RFU 11762660_at / Fold change /veh 11762660_at / RFU VCAN (11757783_s_at) / Fold change /veh VCAN (11757783_s_at) / RFU DDX43 (11728927_at) / Fold change /veh DDX43 (11728927_at) / RFU KRT8 (11758188_x_at) / Fold change /veh KRT8 (11758188_x_at) / RFU NKD1 (11759106_at) / Fold change /veh NKD1 (11759106_at) / RFU SRD5A1 (11742802_a_at) / Fold change /veh SRD5A1 (11742802_a_at) / RFU TPSAB1 /// TPSB2 (11721975_s_at) / Fold change /veh TPSAB1 /// TPSB2 (11721975_s_at) / RFU GSTM3 (11746129_a_at) / Fold change /veh GSTM3 (11746129_a_at) / RFU IL23R (11737362_x_at) / Fold change /veh IL23R (11737362_x_at) / RFU TMEM51 (11727254_a_at) / Fold change /veh TMEM51 (11727254_a_at) / RFU PIWIL2 (11732686_x_at) / Fold change /veh PIWIL2 (11732686_x_at) / RFU ORM1 (11744905_x_at) / Fold change /veh ORM1 (11744905_x_at) / RFU CCDC152 (11743942_at) / Fold change /veh CCDC152 (11743942_at) / RFU ECM1 (11717891_a_at) / Fold change /veh ECM1 (11717891_a_at) / RFU IL23R (11748794_a_at) / Fold change /veh IL23R (11748794_a_at) / RFU TNFAIP8L3 (11732012_x_at) / Fold change /veh TNFAIP8L3 (11732012_x_at) / RFU MBOAT4 (11741988_at) / Fold change /veh MBOAT4 (11741988_at) / RFU 11764193_at / Fold change /veh 11764193_at / RFU TMEM53 (11763286_at) / Fold change /veh TMEM53 (11763286_at) / RFU MAGEB2 (11727129_at) / Fold change /veh MAGEB2 (11727129_at) / RFU TMEM200A (11744735_a_at) / Fold change /veh TMEM200A (11744735_a_at) / RFU CCDC152 (11751479_a_at) / Fold change /veh CCDC152 (11751479_a_at) / RFU FAM211A (11726209_a_at) / Fold change /veh FAM211A (11726209_a_at) / RFU RGS16 (11746705_a_at) / Fold change /veh RGS16 (11746705_a_at) / RFU VCAN (11755009_s_at) / Fold change /veh VCAN (11755009_s_at) / RFU RHOB (11743442_s_at) / Fold change /veh RHOB (11743442_s_at) / RFU RGS16 (11720943_a_at) / Fold change /veh RGS16 (11720943_a_at) / RFU RGS16 (11720944_at) / Fold change /veh RGS16 (11720944_at) / RFU, VPS4B / Fold change vs veh, VPS4B / RFU, CREB1 / Fold change vs veh, CREB1 / RFU, DNAJC13 / Fold change vs veh, DNAJC13 / RFU, GNAQ / Fold change vs veh, GNAQ / RFU, CDK5R1 / Fold change vs veh, CDK5R1 / RFU, ZRANB3 / Fold change vs veh, ZRANB3 / RFU, CUL4A / Fold change vs veh, CUL4A / RFU, CCNY / Fold change vs veh, CCNY / RFU, UFL1 / Fold change vs veh, UFL1 / RFU, COG3 / Fold change vs veh, COG3 / RFU, DIAPH2 / Fold change vs veh, DIAPH2 / RFU, SKA2 / Fold change vs veh, SKA2 / RFU, AFF3 / Fold change vs veh, AFF3 / RFU, LMF1 / Fold change vs veh, LMF1 / RFU, IPO11 / Fold change vs veh, IPO11 / RFU, DFFB / Fold change vs veh, DFFB / RFU, FOXP1 / Fold change vs veh, FOXP1 / RFU, CARD8 / Fold change vs veh, CARD8 / RFU, STRN3 / Fold change vs veh, STRN3 / RFU, ADK / Fold change vs veh, ADK / RFU, RASSF2 / Fold change vs veh, RASSF2 / RFU, WIPF1 / Fold change vs veh, WIPF1 / RFU, LARP1B / Fold change vs veh, LARP1B / RFU, RASA1 / Fold change vs veh, RASA1 / RFU, RB1 / Fold change vs veh, RB1 / RFU, PPFIA1 / Fold change vs veh, PPFIA1 / RFU, MAT2A / Fold change vs veh, MAT2A / RFU, CCT5 / Fold change vs veh, CCT5 / RFU, WDR92 / Fold change vs veh, WDR92 / RFU, CUX1 / Fold change vs veh, CUX1 / RFU, TTC7A / Fold change vs veh, TTC7A / RFU, TMEM135 / Fold change vs veh, TMEM135 / RFU, DEPTOR / Fold change vs veh, DEPTOR / RFU, CPM / Fold change vs veh, CPM / RFU, DNAJB6 / Fold change vs veh, DNAJB6 / RFU, CACNA2D3 / Fold change vs veh, CACNA2D3 / RFU, DTX4 / Fold change vs veh, DTX4 / RFU, TFCP2 / Fold change vs veh, TFCP2 / RFU, GMCL1 /// GMCL1P1 / Fold change vs veh, GMCL1 /// GMCL1P1 / RFU, AEBP2 / Fold change vs veh, AEBP2 / RFU, SNHG1 /// SNORD22 /// SNORD25 /// SNORD26 /// SNORD27 /// SNORD28 /// SNORD29 /// SNORD31 / Fold change vs veh, SNHG1 /// SNORD22 /// SNORD25 /// SNORD26 /// SNORD27 /// SNORD28 /// SNORD29 /// SNORD31 / Fold change (Aza/veh), C12orf56 (ProbeSet 11735607_a_at) / Fold change (ACY-1035/veh), C12orf56 (ProbeSet 11735607_a_at) / Fold change (Aza/veh), FGFR1OP (ProbeSet 11751329_s_at) / Fold change (ACY-1035/veh), FGFR1OP (ProbeSet 11751329_s_at) / Fold change (Aza/veh), VPS36 (ProbeSet 11739960_a_at) / Fold change (ACY-1035/veh), VPS36 (ProbeSet 11739960_a_at) / RFU SYPL1 (11715823_x_at) / Fold change /veh SYPL1 (11715823_x_at) / RFU IGFBP7 (11715501_s_at) / Fold change /veh IGFBP7 (11715501_s_at) / RFU REEP3 (11722064_at) / Fold change /veh REEP3 (11722064_at) / RFU IGLL1 (11728026_x_at) / Fold change /veh IGLL1 (11728026_x_at): dose or concentration left out as unconfirmed",
  "settings": "MV-4-11 cells, 48 hours",
  "data": [
    {"smiles": "Nc1ccc(-c2cccs2)cc1NC(=O)c1ccc2c(c1)cc(C1CC1)n2CCN1CCOCC1", "note": "[ACY-1035]", "values": [
      {"measurement": "Fold change /veh BIN1 (11741810_x_at)", "result": 1.15}
    ]}
  ]
}
